Test results as given in patent publication US20120029190A1, “COMPOUNDS FOR TREATING DISORDERS MEDIATED BY METABOTROPIC GLUTAMATE RECEPTOR 5, AND METHODS OF USE THEREOF” (priority 2009, published 2012).

Target: T1, human recombinant mGluR5 receptor (Homo sapiens, UniProt P41594)
T1 construct: expressed in transfected cells; expression induced with doxycycline
Assay: mGluR5 in vitro functional assay (aequorin cell line, inhibition of glutamate EC80 response)
Format: cell-based
Settings: Table 1; aequorin cell line expressing human mGluR5, reference agonist glutamate at EC80; obtained in duplicate; read-out: IC50
Method: B. mGluR5 In Vitro Functional Assay
The functional assay utilized an aequorin cell line expressing human recombinant mGluR5 receptor, an inducible cell line that expresses the human receptor under the control of a promoter induced by doxycycline.
mGluR5 cells in mid-log phase, grown 18 hours prior to the test in antibiotic-free media supplemented with doxycycline (600 ng/mL), were detached by gentle flushing with PBS-EDTA ([…]). The cells were recovered by centrifugation and resuspended in assay buffer (HBSS, […], 3 ug/mL glutamate-pyruvate transaminase, […] MEM sodium pyruvate, 0.1% BSA protease-free). Cells were incubated at room temperature for at least 4 hours with Coelenterazine h (Molecular Probes). The cell suspension (60 uL) containing the test compound was mixed with a solution of reference agonist (30 uL) at its EC80, following an incubation of 3 min. after the first injection. The resulting emission of light was recorded using a Hamamatsu Functional Drug Screening System 6000 (FDSS 6000). To standardize the emission of recorded light (determination of the “100% signal’) across plates and across different experiments, some of the wells contained 100 uM digitonin or a saturating concentration (20 mM) of ATP. Plates also contained the reference agonist (glutamate) at a concentration equivalent to the EC80 obtained during assay validation. Percentages of inhibition were calculated on the basis of the activation induced by the reference agonist at a concentration equal to the EC80. Dose-response data were analyzed with XLFit (IDBS) software using nonlinear regression applied to a sigmoidal dose-response model.

T1 sequence (P41594 21-1212): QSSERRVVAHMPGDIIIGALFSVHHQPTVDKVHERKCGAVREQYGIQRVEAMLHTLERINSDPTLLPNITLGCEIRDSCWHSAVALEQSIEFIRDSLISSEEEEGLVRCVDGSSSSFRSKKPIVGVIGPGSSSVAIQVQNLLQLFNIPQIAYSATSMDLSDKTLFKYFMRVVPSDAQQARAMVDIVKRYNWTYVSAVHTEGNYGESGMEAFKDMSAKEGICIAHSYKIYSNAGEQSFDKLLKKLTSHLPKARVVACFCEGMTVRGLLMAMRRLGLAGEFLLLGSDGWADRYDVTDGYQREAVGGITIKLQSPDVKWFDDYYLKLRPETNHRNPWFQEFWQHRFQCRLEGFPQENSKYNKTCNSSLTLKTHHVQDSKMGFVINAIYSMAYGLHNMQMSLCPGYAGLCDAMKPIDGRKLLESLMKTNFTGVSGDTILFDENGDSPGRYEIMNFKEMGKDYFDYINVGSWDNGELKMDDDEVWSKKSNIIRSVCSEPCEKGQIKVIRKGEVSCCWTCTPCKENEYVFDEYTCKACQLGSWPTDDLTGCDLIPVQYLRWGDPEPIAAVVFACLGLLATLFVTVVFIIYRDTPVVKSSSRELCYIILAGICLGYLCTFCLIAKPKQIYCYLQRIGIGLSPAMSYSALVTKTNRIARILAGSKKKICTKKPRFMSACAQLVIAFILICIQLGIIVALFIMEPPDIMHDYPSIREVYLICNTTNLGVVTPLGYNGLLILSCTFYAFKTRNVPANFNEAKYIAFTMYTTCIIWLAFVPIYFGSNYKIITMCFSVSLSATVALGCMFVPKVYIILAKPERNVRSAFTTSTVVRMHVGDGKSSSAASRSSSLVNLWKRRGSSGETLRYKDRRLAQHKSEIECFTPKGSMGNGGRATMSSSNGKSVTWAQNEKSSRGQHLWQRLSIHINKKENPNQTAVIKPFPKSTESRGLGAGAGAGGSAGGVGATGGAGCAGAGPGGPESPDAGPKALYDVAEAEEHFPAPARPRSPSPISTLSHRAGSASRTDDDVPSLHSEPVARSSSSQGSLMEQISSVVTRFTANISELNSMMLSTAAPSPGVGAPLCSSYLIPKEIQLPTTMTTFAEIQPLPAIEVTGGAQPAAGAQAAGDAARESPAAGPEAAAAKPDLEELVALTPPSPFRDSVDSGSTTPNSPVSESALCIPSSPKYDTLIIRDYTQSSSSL

Structure (SMILES)	IC50 [nM]
N#Cc1cccc(N2CCc3nc(-c4ccncc4)oc3C2)c1 [Compound 75, 3-(2-(Pyridin-4-yl)-6,7-dihydrooxazolo[5,4-c]pyridin-5(4H)-yl)benzonitrile]	< 10000
Cc1ccnc(-c2nc3c(o2)CN(c2cccc(C#N)c2)CC3)c1 [Compound 76, 3-(2-(4-Methylpyridin-2-yl)-6,7-dihydrooxazolo[5,4-c]pyridin-5(4H)-yl)benzonitrile]	< 10000
N#Cc1cccc(N2CCc3nc(-c4cccnc4)oc3C2)c1 [Compound 77, 3-(2-(Pyridin-3-yl)-6,7-dihydrooxazolo[5,4-c]pyridin-5(4H)-yl)benzonitrile]	> 10000
N#Cc1cccc(N2CCc3oc(-c4ccncc4)nc3C2)c1 [Compound 78, 3-(2-(Pyridin-4-yl)-6,7-dihydrooxazolo[4,5-c]pyridin-5(4H)-yl)benzonitrile]	> 10000
Cc1cc(-c2nc3c(o2)CCN(c2ccccn2)C3)on1 [Compound 79, 2-(3-Methylisoxazol-5-yl)-5-(pyridin-2-yl)-4,5,6,7-tetrahydrooxazolo[4,5-c]pyridine]	> 10000
N#Cc1cc(F)cc(N2CCc3oc(-c4ncco4)nc3C2)c1 [Compound 80, 3-Fluoro-5-(2-(oxazol-2-yl)-6,7-dihydrooxazolo[4,5-c]pyridin-5(4H)-yl)benzonitrile]	< 10000
N#Cc1cccc(-c2nc3c(o2)CN(c2ccccn2)C3)c1 [Compound 86, 3-(5-(Pyridin-2-yl)-5,6-dihydro-4H-pyrrolo[3,4-d]oxazol-2-yl)benzonitrile]	> 10000
FC(F)(F)c1cccc(N2CCCc3nc(-c4ccccn4)oc3C2)c1 [Compound 95, 2-(Pyridin-2-yl)-5-(3-(trifluoromethyl)phenyl)-5,6,7,8-tetrahydro-4H-oxazolo[5,4-c]azepine]	< 10000
COc1cccc(N2CCCc3oc(-c4ccccn4)nc3C2)n1 [Compound 103, 5-(6-Methoxypyridin-2-yl)-2-(pyridin-2-yl)-5,6,7,8-tetrahydro-4H-oxazolo[4,5-c]azepine]	< 1000
Fc1cncc(N2CCCc3oc(-c4ccccn4)nc3C2)c1 [Compound 104, 5-(5-Fluoropyridin-3-yl)-2-(pyridin-2-yl)-5,6,7,8-tetrahydro-4H-oxazolo[4,5-c]azepine]	< 1000
N#Cc1cc(F)cc(N2CCc3nc(-c4ccccn4)sc3C2)c1 [Compound 105, 3-Fluoro-5-(2-(pyridin-2-yl)-6,7-dihydro-thiazolo[5,4-c]pyridin-5(4H)-yl)benzonitrile]	< 10000
Clc1cccc(-c2cn3c(n2)CN(c2cccnc2)CC3)c1 [Compound 106, 2-(3-Chlorophenyl)-7-(pyridin-3-yl)-5,6,7,8-tetrahydroimidazo[1,2-a]pyrazine]	< 10000
Clc1cccc(-c2cn3c(n2)CN(c2ccccn2)CC3)c1 [Compound 107, 2-(3-Chlorophenyl)-7-(pyridin-2-yl)-5,6,7,8-tetrahydroimidazol[1,2-a]pyrazine]	< 10000
N#Cc1cccnc1N1CCn2cc(-c3cccc(Cl)c3)nc2C1 [Compound 108, 2-(2-(3-Chlorophenyl)-5,6-dihydroimidazo[1,2-a]pyrazin-7(8H)-yl)nicotinotrile]	< 10000

Next, values leading:

IC50 [nM]	Structure (SMILES)
< 1000	CC1Cc2nc(-c3ccccn3)oc2CN1c1cc(F)cc(C#N)c1 (centres unmarked) [Compound 83, 3-Fluoro-5-(6-methyl-2-(pyridin-2-yl)-6,7-dihydrooxazolo[5,4-c]pyridin-5(4H)-yl)benzonitrile]
< 1000	N#Cc1cccc(N2Cc3nc(-c4ccccn4)oc3C2)c1 [Compound 84, 3-(2-(Pyridin-2-yl)-4H-pyrrolo[3,4-d]oxazol-5(6H)-yl)benzonitrile]
< 1000	N#Cc1cccnc1N1Cc2nc(-c3ccccn3)oc2C1 [Compound 85, 2-(2-(Pyridin-2-yl)-4H-pyrrolo[3,4-d]oxazol-5(6H)-yl)pyridine-3-carbonitrile]
< 1000	N#Cc1cccc(-c2nc3c(o2)CN(c2ncccc2C#N)C3)c1 [Compound 87, 2-(2-(3-Cyanophenyl)-4H-pyrrolo[3,4-d]oxazol-5(6H)-yl)nicotinonitrile]
< 1000	N#Cc1cccc(N2CCc3nc(-c4ccccn4)oc3CC2)c1 [Compound 88, 3-(2-(Pyridin-2-yl)-7,8-dihydro-4H-oxazolo[5,4-d]azepin-6(5H)-yl)benzonitrile]
< 1000	N#Cc1cc(F)cc(N2CCc3nc(-c4ccccn4)oc3CC2)c1 [Compound 89, 3-Fluoro-5-(2-(pyridin-2-yl)-7,8-dihydro-4H-oxazolo[5,4-d]azepin-6(5H)-yl)benzonitrile]
< 1000	N#Cc1cc(F)cc(N2CCCc3nc(-c4ccccn4)oc3C2)c1 [Compound 90, 3-Fluoro-5-(2-(pyridin-2-yl)-7,8-dihydro-4H-oxazolo[5,4-c]azepin-5(6H)-yl)benzonitrile]
< 1000	COc1cc(C#N)cc(N2CCCc3nc(-c4ccccn4)oc3C2)c1 [Compound 91, 3-Methoxy-5-(2-(pyridin-2-yl)-7,8-dihydro-4H-oxazolo[5,4-c]azepin-5(6H)-yl)benzonitrile]
< 1000	N#Cc1cccc(N2CCCc3nc(-c4ncccn4)oc3C2)c1 [Compound 92, 3-(2-(Pyrimidin-2-yl)-7,8-dihydro-4H-oxazolo[5,4-c]azepin-5(6H)-yl)benzonitrile]
< 1000	N#Cc1cccc(N2CCCc3nc(-c4ccccn4)oc3C2)c1 [Compound 93, 3-(2-(Pyridin-2-yl)-7,8-dihydro-4H-oxazolo[5,4-c]azepin-5(6H)-yl)benzonitrile]
< 1000	N#Cc1cc(N2CCCc3nc(-c4ccccn4)oc3C2)cc(C(F)(F)F)c1 [Compound 94, 3-(2-(Pyridin-2-yl)-7,8-dihydro-4H-oxazolo[5,4-c]azepin-5(6H)-yl)-5-(trifluoromethyl)benzonitrile]
< 1000	N#Cc1cc(F)cc(N2CCCc3nc(-c4ccc(F)cn4)oc3C2)c1 [Compound 96, 3-Fluoro-5-(2-(5-fluoropyridin-2-yl)-7,8-dihydro-4H-oxazolo[5,4-c]azepin-5(6H)-yl)benzonitrile]
< 1000	N#Cc1cccc(N2CCCc3nc(-c4ccc(F)cn4)oc3C2)c1 [Compound 97, 3-(2-(5-Fluoropyridin-2-yl)-7,8-dihydro-4H-oxazolo[5,4-c]azepin-5(6H)-yl)benzonitrile]
< 1000	N#Cc1cc(F)cc(N2CCCc3oc(-c4ccccn4)nc3C2)c1 [Compound 98, 3-Fluoro-5-(2-(pyridin-2-yl)-7,8-dihydro-4H-oxazolo[4,5-c]azepin-5(6H)-yl)benzonitrile]
< 1000	N#Cc1cccc(N2CCCc3oc(-c4ccccn4)nc3C2)c1 [Compound 99, 3-(2-(Pyridin-2-yl)-7,8-dihydro-4H-oxazolo[4,5-c]azepin-5(6H)-yl)benzonitrile]
< 1000	Fc1cccc(N2CCCc3oc(-c4ccccn4)nc3C2)c1 [Compound 100, 5-(3-Fluorophenyl)-2-(pyridin-2-yl)-5,6,7,8-tetrahydro-4H-oxazolo[4,5-c]azepine]
< 1000	Fc1cc(F)cc(N2CCCc3oc(-c4ccccn4)nc3C2)c1 [Compound 101, 5-(3,5-Difluorophenyl)-2-(pyridin-2-yl)-5,6,7,8-tetrahydro-4H-oxazolo[4,5-c]azepine]
< 1000	Clc1cccc(N2CCCc3oc(-c4ccccn4)nc3C2)c1 [Compound 102, 5-(3-Chlorophenyl)-2-(pyridin-2-yl)-5,6,7,8-tetrahydro-4H-oxazolo[4,5-c]azepine]
